The NIST ThermoML archive (doi:10.1016/j.tca.2018.11.018)
± gives the expanded uncertainty stated by the source.

Legend:
[1] = for Triple point temperature: Crystal 2, DSC
[2] = Molar enthalpy of transition or fusion; conditions: DSC
[3] = xn = mol fraction of the nth substance listed; conditions: 100 kPa, Liquid, x2 = 0; for viscosity: Falling or rolling sphere viscometry; for mass density: Vibrating tube method

Row | Compound | Normal melting temperature ([1]; Crystal 1, DTA) [°C] | viscosity ([3]; 298.15 K) [mPa·s] | viscosity ([3]; 303.15 K) [mPa·s] | viscosity ([3]; 308.15 K) [mPa·s] | viscosity ([3]; 313.15 K) [mPa·s] | viscosity ([3]; 318.15 K) [mPa·s] | mass density ([3]; 318.15 K) [kg/m3] | viscosity ([3]; 323.15 K) [mPa·s] | mass density ([3]; 323.15 K) [kg/m3] | viscosity ([3]; 328.15 K) [mPa·s] | mass density ([3]; 328.15 K) [kg/m3] | viscosity ([3]; 333.15 K) [mPa·s] | mass density ([3]; 333.15 K) [kg/m3] | viscosity ([3]; 338.15 K) [mPa·s] | mass density ([3]; 338.15 K) [kg/m3] | viscosity ([3]; 343.15 K) [mPa·s] | mass density ([3]; 343.15 K) [kg/m3] | viscosity ([3]; 348.15 K) [mPa·s] | mass density ([3]; 348.15 K) [kg/m3] | also measured
1 | CCCC[n+]1ccccc1.[Br-] [1-butylpyridinium bromide] | 103.68 ± 0.7 | – | – | – | – | – | – | – | – | – | – | – | – | – | – | – | – | – | – | Molar enthalpy of transition or fusion ([2]; Crystal 1): 4.71 ± 0.359 kcal/mol
2 | CCCC[N+]1(C)CCCCC1.[Br-] [N-butyl-N-methylpiperidinium bromide] | 240.67 ± 0.7 | – | – | – | – | – | – | – | – | – | – | – | – | – | – | – | – | – | – | Triple point temperature [1]: 339.53 ± 0.93 K; Molar enthalpy of transition or fusion ([2]; Crystal 2): 0.0153 kcal/mol
3 | CC[N+]1(C)CCCCC1.[Br-] [N-ethyl-N-methylpiperidinium bromide] | 109.24 ± 0.7 | – | – | – | – | – | – | – | – | – | – | – | – | – | – | – | – | – | – | Molar enthalpy of transition or fusion ([2]; Crystal 1): 3.94 ± 0.335 kcal/mol
4 | CCCC[N+](CC)(CC)CC.[Br-] [butyltriethyl ammonium bromide] | 216.87 ± 0.7 | – | – | – | – | – | – | – | – | – | – | – | – | – | – | – | – | – | – | Normal melting temperature ([1]; Crystal 1, visual observation): 217.0 ± 0.5 °C; Triple point temperature [1]: 444.65 ± 0.93 K; Molar enthalpy of transition or fusion ([2]; Crystal 2): 2.68 ± 0.382 kcal/mol
5 | O [water] | – | – | – | – | – | – | – | – | – | – | – | – | – | – | – | – | – | – | – | Normal melting temperature ([1]; Crystal, visual observation): 0.1 ± 0.3 °C
6 | O [water] + CCCC[N+]1(C)CCCCC1.[Br-] | – | 0.89 ± 0.054 | 0.797 ± 0.048 | 0.719 ± 0.043 | 0.653 ± 0.039 | 0.596 ± 0.036 | 990.1 ± 1 | 0.547 ± 0.033 | 987.9 ± 1 | 0.504 ± 0.03 | 985.6 ± 1 | 0.466 ± 0.028 | 983.2 ± 1 | 0.433 ± 0.026 | 980.3 ± 1 | 0.404 ± 0.024 | 978.1 ± 1 | 0.378 ± 0.023 | 974.8 ± 1 | –
7 | O [water] + CCCC[N+](CC)(CC)CC.[Br-] | – | 0.89 ± 0.054 | 0.797 ± 0.048 | 0.719 ± 0.043 | 0.653 ± 0.039 | 0.596 ± 0.036 | 990.1 ± 1 | 0.547 ± 0.033 | 987.9 ± 1 | 0.504 ± 0.03 | 985.6 ± 1 | 0.466 ± 0.028 | 983.2 ± 1 | 0.433 ± 0.026 | 980.3 ± 1 | 0.404 ± 0.024 | 978.1 ± 1 | 0.378 ± 0.023 | 974.8 ± 1 | –
8 | O [water] + CCCC[n+]1ccccc1.[Br-] | – | 0.89 ± 0.054 | 0.797 ± 0.048 | 0.719 ± 0.043 | 0.653 ± 0.039 | 0.596 ± 0.036 | 990.1 ± 1 | 0.547 ± 0.033 | 987.9 ± 1 | 0.504 ± 0.03 | 985.6 ± 1 | 0.466 ± 0.028 | 983.2 ± 1 | 0.433 ± 0.026 | 980.3 ± 1 | 0.404 ± 0.024 | 978.1 ± 1 | 0.378 ± 0.023 | 974.8 ± 1 | –
9 | O [water] + CC[N+]1(C)CCCCC1.[Br-] | – | 0.89 ± 0.054 | 0.797 ± 0.048 | 0.719 ± 0.043 | 0.653 ± 0.039 | 0.596 ± 0.036 | 990.1 ± 1 | 0.547 ± 0.033 | 987.9 ± 1 | 0.504 ± 0.03 | 985.6 ± 1 | 0.466 ± 0.028 | 983.2 ± 1 | 0.433 ± 0.026 | 980.3 ± 1 | 0.404 ± 0.024 | 978.1 ± 1 | 0.378 ± 0.023 | 974.8 ± 1 | –
